Test results reported in patent US20060106026A1, “4-(4-methylpiperazin-1-ylmethyl)-n-[4-pyridin-3-yl)pyrimidin-2-ylamino)phenyl]-benzamide for treating anaplastic thyroid cancer” (priority 2002, published 2006).
Read-outs that look alike come from different tables or passages of the source.

Legend:
FRO = test system: FRO
Source text: (§1) Human anaplastic thyroid carcinoma cell lines FRO and ARO were used with respectively, undetectable or mutant p53 in codon 273 (Fagin et al., J. Clin. Invest. 1993, 91:179-184). Human papillary carcinoma cell line NPA has p53 mutations in codons 223 and 226 (Fagin et al., J. Clin. Invest. 1993, 91:179-184), while TPC-1 and KTC-1 papillary thyroid carcinoma cell lines are wild type for p53 (Kurebayashi et al., J. Clin. Endocrinol. Metab. 2000, 85:2889-96). Stable transfection with a vector expressing wild type p53 was used to produce the 1F3 cell line from FRO cells (Zeki et al., Int. J. Cancer, 1998, 75:391-5). […] Primary human thyroid cell cultures were established as described previously (Kawabe et al., J. Clin. Endocrinol. Metab., 1989, 68:1174-83) and maintained in a 2:1 mixture of F12 Nutrient Mixture and DEM, supplemented with 3% fetal bovine serum and penicillin-streptomycin (all reagents from Invitrogen Life Technologies, Paisley, UK).
(§2) The kinetics of cell growth were examined using a cytometer as follows: cells were seeded at a density of 0.5 or 0.1×10^5 cells per well in 12-well culture plates. […] Both experiments were performed at least three times.

NPA = test system: NPA
Source text: as §1, §2

TPC-1 = conditions: read-out: IC50 values, mean (50% reduction in cell growth); TPC-1, 72 h of incubation, n=3
Source text: as §1, §2

primary thyrocytes (PT) = conditions: read-out: IC50 values, mean (50% reduction in cell growth), 72 h of incubation, n=3
Source text: as §1, §2

KTC-1 = conditions: read-out: IC50 values, mean (50% reduction in cell growth); KTC-1, 72 h of incubation, n=3
Source text: as §1, §2

ARO = test system: ARO
Source text: as §1, §2

[1] = read-out: IC50 (cytostatic effect)
[2] = read-out: IC50 values, mean (50% reduction in cell growth), 72 h of incubation, n=3

SMILES: CS(=O)(=O)O.Cc1ccc(NC(=O)c2ccc(CN3CCN(C)CC3)cc2)cc1Nc1nccc(-c2cccnc2)n1 [SALT I, 4-[(4-methyl-1-piperazin-1-ylmethyl)-N-[4-methyl-3-[[4-(3-pyridinyl)-2-pyrimidinyl]amino]phenyl]benzamide methanesulfonate]
- IC50 (FRO; [1]): 7.8 µM
- IC50 (FRO; [2]): 6.4 µM
- IC50 (NPA; read-out: IC50, as stated in the discussion, NPA cells): 16 µM
- IC50 (NPA; read-out: IC50 values, mean (50% reduction in cell growth), NPA, 72 h of incubation, n=3): 15.6 µM
- IC50 (TPC-1): 29.5 µM
- IC50 (primary thyrocytes (PT)): 24.7 µM
- IC50 (KTC-1): 22.6 µM
- IC50 (ARO; [1]): 5.9 µM
- IC50 (ARO; [2]): 8.1 µM
